Like-named read-outs stand apart in the source and are kept apart here. Blank lines part the entries; values can stand above or below the compound they belong to.
Experiment: solubility in water
Format: physicochemical

SMILES: O=C(O)c1ccc2cc(C(=O)O)ccc2c1 [2,6-naphthalenedicarboxylic acid]
- amount dissolved in 600 g of water, calculated from the solubility: 36 g

- solubility in water relative to that of terephthalic acid: 1/10
SMILES: O=C(O)c1ccc(-c2ccc(C(=O)O)cc2)cc1 [biphenyldicarboxylic acid]

SMILES: O=C(O)c1ccc2cc(C(=O)O)ccc2c1 [naphthalenedicarboxylic acid]
- solubility in water relative to that of terephthalic acid (fraction of the solubility of terephthalic acid): 1/10

- solubility in water: 6.5 g/100 g
- amount dissolved in 600 g of water, calculated from the solubility (600 g of water, 230° C.): 39 g
SMILES: O=C(O)c1ccc(C(=O)O)cc1 [terephthalic acid]

Reference: patent US20040133038A1, “Method of purifying aromatic polycarboxylic acid” (priority 2001, published 2004)
